Patent US9028856B2, “Synergistic pesticide compositions” (priority 2008, dated 2015)

Test system: bedbug (Cimex lectularius), susceptible strain
Assay: Contact efficacy against bedbugs on filter papers in glass dishes
Assay type: in vivo
Protocol: Adult Cimex lectularius, susceptible strain, were used. A solution of the active ingredient in acetone was prepared. In the same mode a complete […]. All these works were done under drawing off conditions. After evaporation of the acetone (30′) the dishes were closed by a glass lid and transferred into the test room.
One day later ten bedbugs, anaesthetized with CO2, were counted into each dish. At regular intervals, knock down was recorded (cumulatively).
The same methodology was used as was used in Example 105.

[1] = 0.0000128% Deltamethrin in acetone, first test
[2] = 0.0000128% Deltamethrin in acetone, second test
[3] = 0.000064% Deltamethrin in acetone, first test
[4] = 0.000064% Deltamethrin in acetone, second test

CC1(C)[C@H](C(=O)O[C@H](C#N)c2cccc(Oc3ccccc3)c2)[C@@H]1C=C(Br)Br [deltamethrin]
% knock down or moribund after 1 h [1]: 0%
% knock down or moribund after 2 h [1]: 0%
% knock down or moribund after 4 h [1]: 0%
% knock down or moribund after 6 h [1]: 0%
% knock down or moribund after 1 d [1]: 20%
% knock down or moribund after 2 d [1]: 20%
% knock down or moribund after 6 d [1]: 20%
% knock down or moribund after 1 h [2]: 0%
% knock down or moribund after 2 h [2]: 0%
% knock down or moribund after 4 h [2]: 0%
% knock down or moribund after 6 h [2]: 0%
% knock down or moribund after 1 d [2]: 10%
% knock down or moribund after 2 d [2]: 10%
% knock down or moribund after 6 d [2]: 40%
% knock down or moribund after 1 h [3]: 20%
% knock down or moribund after 2 h [3]: 20%
% knock down or moribund after 4 h [3]: 70%
% knock down or moribund after 6 h [3]: 70%
% knock down or moribund after 1 d [3]: 70%
% knock down or moribund after 2 d [3]: 80%
% knock down or moribund after 6 d [3]: 100%
% knock down or moribund after 1 h [4]: 0%
% knock down or moribund after 2 h [4]: 40%
% knock down or moribund after 4 h [4]: 40%
% knock down or moribund after 6 h [4]: 40%
% knock down or moribund after 1 d [4]: 40%
% knock down or moribund after 2 d [4]: 60%
% knock down or moribund after 6 d [4]: 60%
